According to patent publication US10239869B2, “Sulfonamide compounds as voltage-gated sodium channel modulators” (LUPIN LIMITED, priority 2015, dated 2019):
Read-outs that look alike come from different tables or passages of the source. Each block holds one compound with its values, some of them ahead of it.

Experiments:
Nav 1.7 = Nav 1.7 (Homo sapiens (Human), UniProt Q15858); experiment: Inhibition of sodium channels, Red Membrane Potential Dye FLIPR assay, veratridine depolarization; format: cell-based; settings: HEK-293 cells overexpressing the channel; for IC50: read-out: Nav1.7 IC50
Nav 1.5 = Nav 1.5 (Homo sapiens (Human), UniProt Q14524); experiment: as above; format: cell-based; settings: HEK-293 cells overexpressing the channel
[1] = read-out: Nav1.5 IC50 (bound given in μM)

Chain of Nav 1.7 (Q15858 whole entry): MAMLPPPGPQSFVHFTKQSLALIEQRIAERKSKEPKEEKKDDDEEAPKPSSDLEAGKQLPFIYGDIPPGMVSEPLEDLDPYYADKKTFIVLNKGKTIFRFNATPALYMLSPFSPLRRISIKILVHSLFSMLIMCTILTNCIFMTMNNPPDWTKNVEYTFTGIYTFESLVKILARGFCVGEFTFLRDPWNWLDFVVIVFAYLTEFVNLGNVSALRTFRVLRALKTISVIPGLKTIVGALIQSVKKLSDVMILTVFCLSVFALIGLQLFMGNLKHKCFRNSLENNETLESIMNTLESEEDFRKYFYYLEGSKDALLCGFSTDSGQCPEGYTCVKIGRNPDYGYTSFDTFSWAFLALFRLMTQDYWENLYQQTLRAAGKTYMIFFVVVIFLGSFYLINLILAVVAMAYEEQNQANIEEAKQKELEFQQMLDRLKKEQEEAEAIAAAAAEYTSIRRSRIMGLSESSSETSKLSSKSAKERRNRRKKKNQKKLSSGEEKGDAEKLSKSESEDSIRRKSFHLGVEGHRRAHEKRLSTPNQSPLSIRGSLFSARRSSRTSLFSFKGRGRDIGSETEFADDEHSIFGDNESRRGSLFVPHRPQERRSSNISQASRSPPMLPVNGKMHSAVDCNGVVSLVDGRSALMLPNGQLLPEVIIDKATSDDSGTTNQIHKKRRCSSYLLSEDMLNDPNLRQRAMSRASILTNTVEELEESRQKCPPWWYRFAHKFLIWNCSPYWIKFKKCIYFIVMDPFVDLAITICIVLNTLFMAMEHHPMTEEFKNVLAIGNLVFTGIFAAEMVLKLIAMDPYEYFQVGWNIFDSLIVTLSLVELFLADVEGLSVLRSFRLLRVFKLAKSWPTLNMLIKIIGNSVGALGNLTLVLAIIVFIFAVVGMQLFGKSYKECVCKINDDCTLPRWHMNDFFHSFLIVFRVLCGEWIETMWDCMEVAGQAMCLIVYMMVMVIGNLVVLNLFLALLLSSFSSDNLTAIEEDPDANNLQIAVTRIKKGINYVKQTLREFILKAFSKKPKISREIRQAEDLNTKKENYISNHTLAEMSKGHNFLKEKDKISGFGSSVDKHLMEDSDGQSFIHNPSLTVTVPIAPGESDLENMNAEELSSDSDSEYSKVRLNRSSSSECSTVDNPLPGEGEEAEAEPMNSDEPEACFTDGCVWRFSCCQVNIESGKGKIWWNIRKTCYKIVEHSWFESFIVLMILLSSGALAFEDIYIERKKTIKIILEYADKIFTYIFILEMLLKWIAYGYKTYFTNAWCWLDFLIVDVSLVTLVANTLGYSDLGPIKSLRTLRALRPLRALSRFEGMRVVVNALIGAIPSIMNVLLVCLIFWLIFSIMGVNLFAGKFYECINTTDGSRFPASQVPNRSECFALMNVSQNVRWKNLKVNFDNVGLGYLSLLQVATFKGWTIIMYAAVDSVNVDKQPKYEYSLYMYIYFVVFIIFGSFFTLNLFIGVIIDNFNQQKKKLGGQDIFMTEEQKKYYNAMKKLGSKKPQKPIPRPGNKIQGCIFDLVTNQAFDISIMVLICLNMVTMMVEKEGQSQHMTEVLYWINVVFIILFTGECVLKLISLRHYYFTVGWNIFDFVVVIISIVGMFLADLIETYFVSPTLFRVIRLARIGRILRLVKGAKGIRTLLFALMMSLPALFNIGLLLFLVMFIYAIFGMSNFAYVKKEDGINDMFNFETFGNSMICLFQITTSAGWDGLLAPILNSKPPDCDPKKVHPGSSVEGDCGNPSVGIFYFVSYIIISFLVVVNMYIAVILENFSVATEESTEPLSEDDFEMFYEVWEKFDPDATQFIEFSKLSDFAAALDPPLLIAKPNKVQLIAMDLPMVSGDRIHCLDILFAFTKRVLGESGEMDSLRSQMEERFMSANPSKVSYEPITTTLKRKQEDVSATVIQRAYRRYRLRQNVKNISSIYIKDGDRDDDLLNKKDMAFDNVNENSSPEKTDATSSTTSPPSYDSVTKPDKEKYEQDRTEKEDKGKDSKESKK
Chain of Nav 1.5 (Q14524 whole entry): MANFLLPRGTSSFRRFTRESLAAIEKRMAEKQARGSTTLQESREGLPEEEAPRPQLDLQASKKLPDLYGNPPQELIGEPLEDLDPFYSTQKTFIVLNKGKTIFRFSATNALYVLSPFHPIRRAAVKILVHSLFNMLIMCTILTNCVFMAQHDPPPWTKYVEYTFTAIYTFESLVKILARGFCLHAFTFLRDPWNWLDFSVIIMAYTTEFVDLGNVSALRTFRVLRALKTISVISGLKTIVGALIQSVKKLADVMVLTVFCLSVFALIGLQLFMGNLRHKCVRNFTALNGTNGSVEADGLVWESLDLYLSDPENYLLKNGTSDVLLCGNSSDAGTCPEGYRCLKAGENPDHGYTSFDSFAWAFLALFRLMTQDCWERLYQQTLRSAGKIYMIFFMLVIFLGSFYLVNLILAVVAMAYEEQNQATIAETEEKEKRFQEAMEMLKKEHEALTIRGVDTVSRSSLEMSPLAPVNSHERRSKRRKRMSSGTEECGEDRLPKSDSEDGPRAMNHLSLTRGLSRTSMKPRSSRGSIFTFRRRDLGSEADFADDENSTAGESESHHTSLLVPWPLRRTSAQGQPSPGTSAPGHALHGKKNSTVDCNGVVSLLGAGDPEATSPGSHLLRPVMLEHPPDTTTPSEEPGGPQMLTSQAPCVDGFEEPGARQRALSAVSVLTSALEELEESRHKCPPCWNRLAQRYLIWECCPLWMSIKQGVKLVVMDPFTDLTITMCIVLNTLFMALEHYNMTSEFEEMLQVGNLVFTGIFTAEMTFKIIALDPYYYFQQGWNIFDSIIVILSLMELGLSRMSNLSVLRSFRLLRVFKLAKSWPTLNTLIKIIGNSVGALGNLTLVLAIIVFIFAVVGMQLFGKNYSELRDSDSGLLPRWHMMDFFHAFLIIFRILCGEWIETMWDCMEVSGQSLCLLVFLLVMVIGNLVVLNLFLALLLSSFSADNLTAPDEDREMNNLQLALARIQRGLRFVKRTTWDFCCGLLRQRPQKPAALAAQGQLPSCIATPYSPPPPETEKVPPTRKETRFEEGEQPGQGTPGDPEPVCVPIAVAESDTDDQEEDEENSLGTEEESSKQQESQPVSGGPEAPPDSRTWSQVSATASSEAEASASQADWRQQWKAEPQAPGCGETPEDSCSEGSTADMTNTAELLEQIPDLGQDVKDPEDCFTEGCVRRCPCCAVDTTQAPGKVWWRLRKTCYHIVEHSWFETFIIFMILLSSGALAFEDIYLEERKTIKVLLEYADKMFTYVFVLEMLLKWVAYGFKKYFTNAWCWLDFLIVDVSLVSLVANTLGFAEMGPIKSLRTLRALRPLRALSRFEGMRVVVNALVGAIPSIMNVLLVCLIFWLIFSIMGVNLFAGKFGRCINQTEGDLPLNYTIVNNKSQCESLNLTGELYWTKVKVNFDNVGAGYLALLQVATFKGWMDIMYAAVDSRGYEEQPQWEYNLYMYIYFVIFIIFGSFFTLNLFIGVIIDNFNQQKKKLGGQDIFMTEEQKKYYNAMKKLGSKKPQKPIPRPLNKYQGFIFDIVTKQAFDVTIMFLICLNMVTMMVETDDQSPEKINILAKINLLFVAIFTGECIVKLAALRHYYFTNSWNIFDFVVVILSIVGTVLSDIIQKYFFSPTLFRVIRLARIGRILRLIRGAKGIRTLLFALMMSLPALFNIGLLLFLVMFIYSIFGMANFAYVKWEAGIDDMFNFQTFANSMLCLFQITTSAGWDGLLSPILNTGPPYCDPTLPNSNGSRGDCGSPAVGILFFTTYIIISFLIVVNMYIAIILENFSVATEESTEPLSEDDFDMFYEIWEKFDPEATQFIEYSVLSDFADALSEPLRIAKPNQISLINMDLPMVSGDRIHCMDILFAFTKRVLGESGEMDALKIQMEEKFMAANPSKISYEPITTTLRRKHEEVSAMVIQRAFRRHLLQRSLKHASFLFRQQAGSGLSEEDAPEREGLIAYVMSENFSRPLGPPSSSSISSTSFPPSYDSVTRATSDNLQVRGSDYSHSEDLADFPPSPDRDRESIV

IC50 (Nav 1.7): 113 nM
SMILES: O=S1(=O)CCN(c2cc(C(F)(F)F)ccc2[C@H]2CCOc3cc(S(=O)(=O)Nc4cccnn4)ccc32)CC1 (racemic) [Example-236, (R/S)-4-(2-(1,1-dioxidothiomorpholino)-4-(trifluoromethyl)phenyl)-N-(pyridazin-3-yl)chroman-7-sulfonamide]
IC50 (Nav 1.5; [1]): > 10 µM

IC50 (Nav 1.7): 8 nM
SMILES: Cc1ccc(-c2cc(C(F)(F)F)ccc2[C@H]2CCOc3cc(S(=O)(=O)Nc4cccnn4)ccc32)cn1 (stereo in doubt) [Example-205, (R/S)-4-(2-(6-methylpyridin-3-yl)-4-(trifluoromethyl)phenyl)-N-(pyridazin-3-yl)chroman-7-sulfonamide]
IC50 (Nav 1.5; read-out: Nav1.5 IC50): 0.25 µM

SMILES: Cn1nccc1-c1cc(C(F)(F)F)ccc1[C@@H]1CCOc2cc(S(=O)(=O)Nc3cnccn3)ccc21 [Example 11, (S&R)-4-(2-(1-Methyl-1H-pyrazol-5-yl)-4-(trifluoromethyl)phenyl)-N-(pyrazin-2-yl) chromane-7-sulfonamide]
Nav1.7 inhibition @ 10 μM (Nav 1.7): 96%
IC50 (Nav 1.5; [1]): > 10 µM

SMILES: Cn1nccc1-c1cc(C(F)(F)F)ccc1[C@@H]1CCOc2cc(S(=O)(=O)Nc3ncccc3F)ccc21 [Example 17, (S&R)—N-(3-Fluoropyridin-2-yl)-4-(2-(1-methyl-1H-pyrazol-5-yl)-4-(trifluoromethyl)phenyl)chromane-7-sulfonamide]
Nav1.7 inhibition @ 10 μM (Nav 1.7): 96%
IC50 (Nav 1.5; [1]): > 10 µM

SMILES: Cn1nccc1-c1cc(C(F)(F)F)ccc1[C@H]1CCOc2cc(S(=O)(=O)Nc3ncccc3F)ccc21 [Example 18, (S&R)—N-(3-Fluoropyridin-2-yl)-4-(2-(1-methyl-1H-pyrazol-5-yl)-4-(trifluoromethyl)phenyl)chromane-7-sulfonamide]
IC50 (Nav 1.7): 759 nM
IC50 (Nav 1.5; [1]): > 10 µM

SMILES: Cc1cccc(NS(=O)(=O)c2ccc3c(c2)OCC[C@H]3c2ccc(C(F)(F)F)cc2-c2ccnn2C)n1 [Example 19, (S&R)-4-(2-(1-methyl-1H-pyrazol-5-yl)-4-(trifluoromethyl)phenyl)-N-(6-methylpyridin-2-yl)chroman-7-sulfonamide]
IC50 (Nav 1.7): 1010 nM
IC50 (Nav 1.5; [1]): > 10 µM

SMILES: Cc1ccc(NS(=O)(=O)c2ccc3c(c2)OCC[C@H]3c2ccc(C(F)(F)F)cc2-c2ccnn2C)nc1 [Example 21, (S&R)-4-(2-(1-methyl-1H-pyrazol-5-yl)-4-(trifluoromethyl)phenyl)-N-(5-methylpyridin-2-yl)chroman-7-sulfonamide]
IC50 (Nav 1.7): 4270 nM
Nav1.5 % inhibition @ 10 μM (Nav 1.5): 57%

SMILES: Cc1ccc(NS(=O)(=O)c2ccc3c(c2)OCC[C@@H]3c2ccc(C(F)(F)F)cc2-c2ccnn2C)nc1 [Example 22, (S&R)-4-(2-(1-methyl-1H-pyrazol-5-yl)-4-(trifluoromethyl)phenyl)-N-(5-methylpyridin-2-yl)chroman-7-sulfonamide]
IC50 (Nav 1.7): 2060 nM
Nav1.5 % inhibition @ 10 μM (Nav 1.5): 74%

SMILES: Cc1ccnc(NS(=O)(=O)c2ccc3c(c2)OCC[C@H]3c2ccc(C(F)(F)F)cc2-c2ccnn2C)c1 [Example 23, (S&R)-4-(2-(1-methyl-1H-pyrazol-5-yl)-4-(trifluoromethyl)phenyl)-N-(4-methylpyridin-2-yl)chroman-7-sulfonamide]
IC50 (Nav 1.7): 3690 nM
Nav1.5 % inhibition @ 10 μM (Nav 1.5): 59%

SMILES: Cc1ccnc(NS(=O)(=O)c2ccc3c(c2)OCC[C@@H]3c2ccc(C(F)(F)F)cc2-c2ccnn2C)c1 [Example 24, (S&R)-4-(2-(1-methyl-1H-pyrazol-5-yl)-4-(trifluoromethyl)phenyl)-N-(4-methylpyridin-2-yl)chroman-7-sulfonamide]
IC50 (Nav 1.7): 816 nM
IC50 (Nav 1.5; read-out: Nav1.5 IC50): 3.92 µM

SMILES: CC(C)Oc1cccc(NS(=O)(=O)c2ccc3c(c2)OCC[C@H]3c2ccc(C(F)(F)F)cc2-c2ccnn2C)n1 [Example 25, (S&R)—N-(6-isopropoxypyridin-2-yl)-4-(2-(1-methyl-1H-pyrazol-5-yl)-4-(trifluoromethyl)phenyl)chroman-7-sulfonamide]
IC50 (Nav 1.7): 221 nM
IC50 (Nav 1.5; [1]): > 10 µM

SMILES: CC(C)Oc1cccc(NS(=O)(=O)c2ccc3c(c2)OCC[C@@H]3c2ccc(C(F)(F)F)cc2-c2ccnn2C)n1 [Example 26, (S&R)—N-(6-isopropoxypyridin-2-yl)-4-(2-(1-methyl-1H-pyrazol-5-yl)-4-(trifluoromethyl)phenyl)chroman-7-sulfonamide]
IC50 (Nav 1.7): 685 nM
IC50 (Nav 1.5; [1]): > 10 µM

SMILES: Cn1nccc1-c1cc(C(F)(F)F)ccc1[C@@H]1CCOc2cc(S(=O)(=O)Nc3cccnc3F)ccc21 [Example 27, (S&R)—N-(2-fluoropyridin-3-yl)-4-(2-(1-methyl-1H-pyrazol-5-yl)-4-(trifluoromethyl)phenyl)chroman-7-sulfonamide]
Nav1.7 inhibition @ 10 μM (Nav 1.7): 80%
IC50 (Nav 1.5; [1]): > 10 µM

SMILES: Cn1nccc1-c1cc(C(F)(F)F)ccc1[C@H]1CCOc2cc(S(=O)(=O)Nc3cccnc3F)ccc21 [Example 28, (S&R)—N-(2-fluoropyridin-3-yl)-4-(2-(1-methyl-1H-pyrazol-5-yl)-4-(trifluoromethyl)phenyl)chroman-7-sulfonamide]
IC50 (Nav 1.7): 1570 nM
IC50 (Nav 1.5; [1]): > 10 µM

SMILES: Cc1ccnc(NS(=O)(=O)c2ccc3c(c2)OCC[C@H]3c2ccc(C(F)(F)F)cc2-c2ccnn2C)n1 [Example 29, (S&R)-4-(2-(1-methyl-1H-pyrazol-5-yl)-4-(trifluoromethyl)phenyl)-N-(4-methylpyrimidin-2-yl)chroman-7-sulfonamide]
Nav1.7 inhibition @ 10 μM (Nav 1.7): 91%
IC50 (Nav 1.5; [1]): > 10 µM

SMILES: Cc1ccnc(NS(=O)(=O)c2ccc3c(c2)OCC[C@@H]3c2ccc(C(F)(F)F)cc2-c2ccnn2C)n1 [Example 30, (S&R)-4-(2-(1-methyl-1H-pyrazol-5-yl)-4-(trifluoromethyl)phenyl)-N-(4-methylpyrimidin-2-yl)chroman-7-sulfonamide]
Nav1.7 inhibition @ 10 μM (Nav 1.7): 72%
IC50 (Nav 1.5; [1]): > 10 µM

SMILES: Cn1nccc1-c1cc(Cl)ccc1[C@@H]1CCOc2cc(S(=O)(=O)Nc3cccc(F)n3)ccc21 [Example 31, (S&R)-4-(4-chloro-2-(1-methyl-1H-pyrazol-5-yl)phenyl)-N-(6-fluoropyridin-2-yl)chroman-7-sulfonamide]
IC50 (Nav 1.7): 2050 nM
IC50 (Nav 1.5; [1]): > 10 µM

SMILES: Cn1nccc1-c1cc(Cl)ccc1[C@H]1CCOc2cc(S(=O)(=O)Nc3cccc(F)n3)ccc21 [Example 32, (S&R)-4-(4-chloro-2-(1-methyl-1H-pyrazol-5-yl)phenyl)-N-(6-fluoropyridin-2-yl)chroman-7-sulfonamide]
IC50 (Nav 1.7): 151 nM
IC50 (Nav 1.5; [1]): > 10 µM

SMILES: CC(C)Oc1ccc([C@@H]2CCOc3cc(S(=O)(=O)Nc4cccc(F)n4)ccc32)c(-c2ccnn2C)c1 [Example 33, (S&R)—N-(6-fluoropyridin-2-yl)-4-(4-isopropoxy-2-(1-methyl-1H-pyrazol-5-yl)phenyl)chroman-7-sulfonamide]
IC50 (Nav 1.7): 514 nM
IC50 (Nav 1.5; [1]): > 10 µM

SMILES: CC(C)Oc1ccc([C@H]2CCOc3cc(S(=O)(=O)Nc4cccc(F)n4)ccc32)c(-c2ccnn2C)c1 [Example 34, (S&R)—N-(6-fluoropyridin-2-yl)-4-(4-isopropoxy-2-(1-methyl-1H-pyrazol-5-yl)phenyl)chroman-7-sulfonamide]
IC50 (Nav 1.7): 57 nM
IC50 (Nav 1.5; [1]): > 10 µM

SMILES: O=S(=O)(Nc1cccnn1)c1ccc2c(c1)OCC[C@H]2c1ccc(C(F)(F)F)cc1-c1ccc(F)nc1 [Example 41, (S&R)-4-(2-(6-Fluoropyridin-3-yl)-4-(trifluoromethyl)phenyl)-N-(pyridazin-3-yl)chromane-7-sulfonamide]
IC50 (Nav 1.7): 622 nM
IC50 (Nav 1.5; [1]): > 10 µM

SMILES: O=S(=O)(Nc1cccnn1)c1ccc2c(c1)OCC[C@@H]2c1ccc(C(F)(F)F)cc1-c1ccc(F)nc1 [Example 42, (S&R)-4-(2-(6-Fluoropyridin-3-yl)-4-(trifluoromethyl)phenyl)-N-(pyridazin-3-yl)chromane-7-sulfonamide]
IC50 (Nav 1.7): 0.2 nM
IC50 (Nav 1.5; read-out: Nav1.5 IC50): 0.644 µM

SMILES: O=S(=O)(Nc1ccncn1)c1ccc2c(c1)OCC[C@H]2c1ccc(C(F)(F)F)cc1-c1ccc(F)cc1 [Example 47, (S&R)-4-(4′-Fluoro-5-(trifluoromethyl)-[1,1′-biphenyl]-2-yl)-N-(pyrimidin-4-yl)chromane-7-sulfonamide]
Nav1.7 inhibition @ 10 μM (Nav 1.7): 64%
IC50 (Nav 1.5; [1]): > 10 µM

SMILES: O=S(=O)(Nc1cccnn1)c1ccc2c(c1)OCCC2c1ccc(C(F)(F)F)cc1-n1ccnn1 (stereo not drawn) [Example 53, (S&R)-4-(2-(1H-1,2,3-Triazol-1-yl)-4-(trifluoromethyl)phenyl)-N-(pyridazin-3-yl)chromane-7-sulfonamide]
Nav1.7 inhibition @ 10 μM (Nav 1.7): 70%
Nav1.5 % inhibition @ 10 μM (Nav 1.5): 44%

SMILES: O=S(=O)(Nc1cccnn1)c1ccc2c(c1)OCC[C@@H]2c1ccc(C(F)(F)F)cc1-n1ccnn1 [Example 54, (S&R)-4-(2-(1H-1,2,3-Triazol-1-yl)-4-(trifluoromethyl)phenyl)-N-(pyridazin-3-yl)chromane-7-sulfonamide]
IC50 (Nav 1.7): 706 nM
IC50 (Nav 1.5; [1]): > 10 µM

SMILES: Cc1nc(-c2cc(C(F)(F)F)ccc2[C@@H]2CCOc3cc(S(=O)(=O)Nc4cccc(F)n4)ccc32)cs1 [Example 61]
IC50 (Nav 1.7): 568 nM
IC50 (Nav 1.5; [1]): > 10 µM

SMILES: Cc1nc(-c2cc(C(F)(F)F)ccc2[C@H]2CCOc3cc(S(=O)(=O)Nc4cccc(F)n4)ccc32)cs1 [Example 62]
IC50 (Nav 1.7): 5 nM
Nav1.5 % inhibition @ 10 μM (Nav 1.5): 42%

SMILES: Cc1nc(-c2cc(C(F)(F)F)ccc2[C@@H]2CCOc3cc(S(=O)(=O)Nc4ncccn4)ccc32)cs1 [Example 63, (S&R)-4-(2-(2-Methylthiazol-4-yl)-4-(trifluoromethyl)phenyl)-N-(pyrimidin-2-yl)chroman-7-sulfonamide]
IC50 (Nav 1.7): 526 nM
IC50 (Nav 1.5; [1]): > 10 µM

SMILES: Cc1nc(-c2cc(C(F)(F)F)ccc2[C@H]2CCOc3cc(S(=O)(=O)Nc4ncccn4)ccc32)cs1 [Example 64, (S&R)-4-(2-(2-Methylthiazol-4-yl)-4-(trifluoromethyl)phenyl)-N-(pyrimidin-2-yl)chroman-7-sulfonamide]
IC50 (Nav 1.7): 3 nM
IC50 (Nav 1.5; [1]): > 10 µM

SMILES: Cc1nc(-c2cc(C(F)(F)F)ccc2[C@@H]2CCOc3cc(S(=O)(=O)Nc4ccncn4)ccc32)cs1 [Example 67, (S&R)-4-(2-(2-Methylthiazol-4-yl)-4-(trifluoromethyl)phenyl)-N-(pyrimidin-4-yl)chroman-7-sulfonamide]
IC50 (Nav 1.7): 30 nM
IC50 (Nav 1.5; [1]): > 10 µM
